Measurements published in ChEMBL document CHEMBL2010736 (ACS Med Chem Lett, 2011).
Activity calls are given as the source filed them. No cut-off for these calls is given here.

Experiments:
Adenosine receptor A2a [1] = biological target: T1, Adenosine receptor A2a (Homo sapiens, UniProt P29274); experiment: Displacement of [3H]CGS21680 from human recombinant adenosine receptor-2A expressed in HEK293 cell membrane at 10 uM after 60 mins by liquid scintillation counting; format: cell membranes
[2] = biological target: T2, Adenosine receptor A1 (Homo sapiens) (UniProt P30542); experiment: Agonist activity at human recombinant adenosine receptor-1 expressed in CHO cells assessed as inhibition of forskolin-stimulated cAMP production at 10 uM preincubated for 45 mins prior forskolin-induction measured after 15 mins by immunoassay relative to 10 uM CPA; format: functional, cell-based
T2 sequence (whole entry): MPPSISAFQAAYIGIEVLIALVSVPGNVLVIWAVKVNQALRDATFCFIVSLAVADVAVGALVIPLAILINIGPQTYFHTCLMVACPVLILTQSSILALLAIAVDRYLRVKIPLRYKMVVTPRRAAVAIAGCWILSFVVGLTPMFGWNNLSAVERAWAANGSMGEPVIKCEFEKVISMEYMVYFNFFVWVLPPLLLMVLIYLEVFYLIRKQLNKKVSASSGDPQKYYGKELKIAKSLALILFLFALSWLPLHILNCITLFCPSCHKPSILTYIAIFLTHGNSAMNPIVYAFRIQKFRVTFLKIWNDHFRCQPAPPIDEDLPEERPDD

Adenosine receptor A1 [3] = biological target: T3, Adenosine receptor A1 (Rattus norvegicus, UniProt P25099); experiment: Displacement of [3H]R-PIA from rat forebrain adenosine receptor-1
T3 sequence (P25099 whole entry): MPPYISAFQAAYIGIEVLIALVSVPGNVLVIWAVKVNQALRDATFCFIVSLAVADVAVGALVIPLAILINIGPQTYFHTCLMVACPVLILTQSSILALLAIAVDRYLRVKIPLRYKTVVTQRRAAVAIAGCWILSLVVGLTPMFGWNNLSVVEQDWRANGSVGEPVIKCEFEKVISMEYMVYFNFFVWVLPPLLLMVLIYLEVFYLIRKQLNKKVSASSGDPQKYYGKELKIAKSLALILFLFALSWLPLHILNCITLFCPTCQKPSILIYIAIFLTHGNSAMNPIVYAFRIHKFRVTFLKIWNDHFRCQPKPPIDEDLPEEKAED

Adenosine receptor A1 [4] = biological target: T4, Adenosine receptor A1 (Homo sapiens, UniProt P30542); experiment: Agonist activity at human recombinant adenosine receptor-1 expressed in CHO cells assessed as inhibition of forskolin-stimulated cAMP production preincubated for 45 mins prior forskolin-induction measured after 15 mins by immunoassay; format: functional, cell-based
T4 sequence (P30542 whole entry): T2 sequence (whole entry)

[5] = biological target: T2, Adenosine receptor A1 (Homo sapiens); experiment: Displacement of [3H]R-PIA from human recombinant adenosine receptor-1 expressed in CHO cell membrane at 10 uM after 60 mins by liquid scintillation counting; format: cell membranes
Adenosine receptor A3 = biological target: T5, Adenosine receptor A3 (Homo sapiens, UniProt P0DMS8); experiment: Displacement of [125I]AB-MECA from human recombinant adenosine receptor-3 expressed in CHO cell membrane after 60 mins by gamma-counting; format: cell membranes
T5 sequence (P0DMS8 whole entry): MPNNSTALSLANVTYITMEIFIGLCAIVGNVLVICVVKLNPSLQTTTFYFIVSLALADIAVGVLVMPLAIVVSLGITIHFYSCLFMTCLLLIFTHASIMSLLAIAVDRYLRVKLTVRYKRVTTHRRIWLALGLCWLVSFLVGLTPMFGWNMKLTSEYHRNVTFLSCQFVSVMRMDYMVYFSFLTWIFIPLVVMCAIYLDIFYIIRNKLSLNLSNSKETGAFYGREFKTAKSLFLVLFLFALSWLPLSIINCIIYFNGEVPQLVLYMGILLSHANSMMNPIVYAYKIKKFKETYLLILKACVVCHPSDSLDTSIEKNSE

Homo sapiens [6] = species: Homo sapiens; experiment: Selectivity ratio of Ki for human recombinant adenosine receptor-1 to Ki for human recombinant adenosine receptor-3
Homo sapiens [7] = species: Homo sapiens; experiment: Selectivity ratio of Ki for human recombinant adenosine receptor-3 to Ki for human recombinant adenosine receptor-1
Adenosine receptor A1 [8] = biological target: T4, Adenosine receptor A1; experiment: Displacement of [3H]R-PIA from human recombinant adenosine receptor-1 expressed in CHO cell membrane after 60 mins by liquid scintillation counting; format: cell membranes
Adenosine receptor A2a [9] = biological target: T1, Adenosine receptor A2a; experiment: Displacement of [3H]CGS21680 from human recombinant adenosine receptor-2A expressed in HEK293 cell membrane after 60 mins by liquid scintillation counting; format: cell membranes
[10] = biological target: T6, Adenosine receptor A1 (Rattus norvegicus) (UniProt P25099); experiment: Antagonist activity at adenosine receptor-1 in rat adipocytes; format: functional, cell-based
T6 sequence (whole entry): T3 sequence (P25099 whole entry)

[11] = biological target: T7, Adenosine receptor A3 (Rattus norvegicus) (UniProt P28647); experiment: Partial agonist activity at rat adenosine receptor-3; format: functional
T7 sequence (whole entry): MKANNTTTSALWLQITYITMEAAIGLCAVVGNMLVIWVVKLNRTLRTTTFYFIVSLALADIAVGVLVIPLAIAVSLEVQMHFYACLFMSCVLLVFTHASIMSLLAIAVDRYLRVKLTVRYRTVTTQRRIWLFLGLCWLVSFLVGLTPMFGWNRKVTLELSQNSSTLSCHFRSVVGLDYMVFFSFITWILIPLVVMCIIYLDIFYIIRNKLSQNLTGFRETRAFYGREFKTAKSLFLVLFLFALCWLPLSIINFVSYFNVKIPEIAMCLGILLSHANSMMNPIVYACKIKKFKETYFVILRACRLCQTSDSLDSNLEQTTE

T1 sequence (P29274 whole entry): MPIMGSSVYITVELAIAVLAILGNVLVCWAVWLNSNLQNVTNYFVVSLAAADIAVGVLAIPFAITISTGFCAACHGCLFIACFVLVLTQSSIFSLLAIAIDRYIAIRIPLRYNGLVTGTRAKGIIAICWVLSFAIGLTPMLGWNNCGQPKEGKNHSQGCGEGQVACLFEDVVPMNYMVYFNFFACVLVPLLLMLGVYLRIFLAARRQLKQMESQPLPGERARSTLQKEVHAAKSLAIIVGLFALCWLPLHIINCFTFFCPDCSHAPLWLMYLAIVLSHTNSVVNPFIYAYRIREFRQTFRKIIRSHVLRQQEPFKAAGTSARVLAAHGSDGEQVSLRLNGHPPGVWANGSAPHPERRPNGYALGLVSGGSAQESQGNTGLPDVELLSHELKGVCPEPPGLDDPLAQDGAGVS

| Structure (SMILES) | inhibition (Adenosine receptor A2a [1]) | inhibition [2] | Ki (Adenosine receptor A1 [3]) | Ki (Adenosine receptor A3) | other results |
| --- | --- | --- | --- | --- | --- |
| CC(C)Nc1nc(Cl)nc2c1ncn2[C@H]1[C@H](O)[C@H](O)[C@@H]2C[C@@H]21 | 39% | 50.5% | 1.9 nM | – | – |
| O[C@@H]1[C@H](O)[C@@H]2C[C@@H]2[C@H]1n1cnc2c(NC(C3CC3)C3CC3)nc(Cl)nc21 | – | – | 0.8 nM | – | EC50 (Adenosine receptor A1 [4]): 40.7 nM |
| COc1ccc(F)c(F)c1CNc1nc(Cl)nc2c1ncn2[C@H]1[C@H](O)[C@H](O)[C@@H]2C[C@@H]21 | 30% | – | – | 83.2 nM | inhibition [5]: 41% |
| O[C@@H]1[C@H](O)[C@@H]2C[C@@H]2[C@H]1n1cnc2c(NCc3ccccc3F)nc(Cl)nc21 | 31% | – | 6 nM | – | Ratio Ki (Homo sapiens [6]): 115 |
| O[C@@H]1[C@H](O)[C@@H]2C[C@@H]2[C@H]1n1cnc2c(NCc3ccccc3OCCF)nc(Cl)nc21 | 32% | – | – | – | inhibition [5]: 46% |
| CCC(CC)Nc1nc(Cl)nc2c1ncn2[C@H]1[C@H](O)[C@H](O)[C@@H]2C[C@@H]21 | – | 28.6% | – | – | – |
| CCNc1nc(Cl)nc2c1ncn2[C@H]1[C@H](O)[C@H](O)[C@@H]2C[C@@H]21 | 11% | – | – | – | – |
| COc1cc(F)c(F)cc1CNc1nc(Cl)nc2c1ncn2[C@H]1[C@H](O)[C@H](O)[C@@H]2C[C@@H]21 | – | – | – | 40.4 nM | Ki (Adenosine receptor A1 [8]): 1910 nM; Ki (Adenosine receptor A2a [9]): 7510 nM |
| O[C@@H]1[C@H](O)[C@@H]2C[C@@H]2[C@H]1n1cnc2c(N[C@H]3C[C@H]4CC[C@H]3C4)nc(Cl)nc21 | – | 62.1% | 0.34 nM | 315 nM | Ki (Adenosine receptor A1 [8]): 82.6 nM; Ki (Adenosine receptor A2a [9]): 2450 nM; Ratio Ki (Homo sapiens [7]): 4 |
| Nc1nc(Cl)nc2c1ncn2[C@H]1[C@H](O)[C@H](O)[C@@H]2C[C@@H]21 | – | 68.1% | – | – | – |
| CCCCn1c(=O)c2c(ncn2[C@@H]2O[C@H](C(=O)NC)C[C@H]2O)n(CCCC)c1=O | – | – | – | – | Activity [10]: Active; Activity [11]: Active |
| O[C@@H]1[C@H](O)[C@@H]2C[C@@H]2[C@H]1n1cnc2c(N[C@@H]3C[C@H]4CC[C@H]3C4)nc(Cl)nc21 | – | 27.8% | 0.7 nM | 236 nM | Ki (Adenosine receptor A1 [8]): 200 nM; Ki (Adenosine receptor A2a [9]): 4080 nM |
| O[C@@H]1[C@H](O)[C@@H]2C[C@@H]2[C@H]1n1cnc2c(NC3CC3)nc(Cl)nc21 | – | 79% | – | – | – |
| O[C@@H]1[C@H](O)[C@@H]2C[C@@H]2[C@H]1n1cnc2c(NCc3cc(F)ccc3F)nc(Cl)nc21 | 38% | – | – | 16.5 nM | Ki (Adenosine receptor A1 [8]): 1260 nM |
| O[C@@H]1[C@H](O)[C@@H]2C[C@@H]2[C@H]1n1cnc2c(NC3CCCCCC3)nc(Cl)nc21 | – | 48.1% | – | – | – |

Now from value to compound, other results behind:

| inhibition (Adenosine receptor A2a [1]) | inhibition [2] | Ki (Adenosine receptor A1 [3]) | Ki (Adenosine receptor A3) | Structure (SMILES) | other results |
| --- | --- | --- | --- | --- | --- |
| 32% | – | – | 15.2 nM | CCOc1ccccc1CNc1nc(Cl)nc2c1ncn2[C@H]1[C@H](O)[C@H](O)[C@@H]2C[C@@H]21 | inhibition [5]: 34% |
| – | 38% | 0.9 nM | – | O[C@@H]1[C@H](O)[C@@H]2C[C@@H]2[C@H]1n1cnc2c(NC3CCCCC3)nc(Cl)nc21 | Ratio Ki (Homo sapiens [7]): 2 |
| 29% | 23.2% | – | – | O[C@@H]1[C@H](O)[C@@H]2C[C@@H]2[C@H]1n1cnc2c(NCCCF)nc(Cl)nc21 | – |
| – | 81% | 0.8 nM | – | O[C@@H]1[C@H](O)[C@@H]2C[C@@H]2[C@H]1n1cnc2c(NCC3CC3)nc(Cl)nc21 | – |
| 43% | 40.1% | – | – | O[C@@H]1[C@H](O)[C@@H]2C[C@@H]2[C@H]1n1cnc2c(NC3CCCCCCC3)nc(Cl)nc21 | Ratio Ki (Homo sapiens [7]): 2 |
| – | – | 0.7 nM | – | O[C@@H]1[C@H](O)[C@@H]2C[C@@H]2[C@H]1n1cnc2c(NC3CCC3)nc(Cl)nc21 | – |
| 46% | – | – | 114 nM | O[C@@H]1[C@H](O)[C@@H]2C[C@@H]2[C@H]1n1cnc2c(NCc3cccc(OCCF)c3)nc(Cl)nc21 | Ki (Adenosine receptor A1 [8]): 3580 nM |
| 41% | – | – | – | CC(Nc1nc(Cl)nc2c1ncn2[C@H]1[C@H](O)[C@H](O)[C@@H]2C[C@@H]21)C1CC1 (mixture of isomers) | – |
